By inhibition is commonly meant the change of the read-out against control, counted positive when it falls. Broadly, the Ki is a measure of affinity in units of concentration, obtained from inhibition or displacement. A lower Ki goes with a stronger hold on the target.

For 36 molecules, inhibition and Ki results are on record in US7998978B2 (Pfizer Inc., priority 2006, dated 2011).

The structures appear in SMILES notation.

In one test the target is T1, JNK1α1 (Homo sapiens, UniProt P45983).
T1 construct: catalytic domain containing amino acids 1-364 and N-terminal hexahistidine tag; hexahistidine (His6) (N); made in house; host or cells: E. coli BL21 (DE3)
T1 sequence (P45983 1-364): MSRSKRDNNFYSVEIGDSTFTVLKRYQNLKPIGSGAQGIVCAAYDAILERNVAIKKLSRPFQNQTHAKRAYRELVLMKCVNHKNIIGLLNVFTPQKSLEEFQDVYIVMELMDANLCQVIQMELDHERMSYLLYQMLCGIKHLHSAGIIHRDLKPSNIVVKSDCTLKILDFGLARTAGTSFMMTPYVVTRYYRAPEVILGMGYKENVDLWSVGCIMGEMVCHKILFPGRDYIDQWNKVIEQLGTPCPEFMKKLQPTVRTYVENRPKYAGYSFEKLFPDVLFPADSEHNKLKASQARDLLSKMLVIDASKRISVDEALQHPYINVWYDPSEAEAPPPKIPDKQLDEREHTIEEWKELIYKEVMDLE
Put plainly: Coupled spectrophotometric (PK/LDH) JNK1α1 assay: % inhibition and Ki determination. The class given is biochemical. Conditions: @1 uM; read-out: % Inhibition JNK-1. Summed up: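 Initial rates were taken from the absorbance decrease at 340 nm at 30° C. Ki was fitted with a tight-binding model over 11 concentrations (top 100 μM); single-point inhibition was tested at 1 or 10 μM.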
Take `O=C(NCc1nc(-c2ccccc2)no1)c1cccc2cnc(N[C@H]3CC[C@H](O)CC3)nc12` [Example 513, 2-[(trans-4-hydroxycyclohexyl)amino]-N-[(3-phenyl-1,2,4-oxadiazol-5-yl)methyl]quinazoline-8-carboxamide]: the inhibition at 1 µM stood at 21%. Take `CN1CCC(Oc2ccc3cnc(N[C@H]4CC[C@H](O)CC4)nc3c2)CC1` [Example 271, trans-4-({7-[(1-methylpiperidin-4-yl)oxy]quinazolin-2-yl}amino)cyclohexanol]: the inhibition at 1 µM was 41%. Turning to `O=C(N[C@@H]1COC[C@H]1O)c1ccc2cnc(NC3CCC3)nc2c1` [Example 433, 2-(cyclobutylamino)-N-[(3R,4S)-4-hydroxytetrahydrofuran-3-yl]quinazoline-7-carboxamide], the inhibition at 1 µM amounted to 24%.

For `CC(C)c1ncc(NC(=O)c2cccc3cnc(N[C@H]4CC[C@H](O)CC4)nc23)cn1` [Example 321, 2-[(trans-4-hydroxycyclohexyl)amino]-N-(2-isopropylpyrimidin-5-yl)quinazoline-8-carboxamide], the inhibition at 1 µM came out at 39%.

Consider `CC1CN(CCOc2cccc3cnc(N[C@H]4CC[C@H](O)CC4)nc23)CC(C)O1` (stereo partly drawn) [Example 267, trans-4-({8-[2-(2,6-dimethylmorpholin-4-yl)ethoxy]quinazolin-2-yl}amino)cyclohexanol], for which the inhibition at 1 µM came to 18%.

For the molecule `O[C@H]1CC[C@H](Nc2ncc3ccc(O[C@H]4CCN(Cc5ccccc5)C4)cc3n2)CC1` [Example 277, trans-4-[(7-{[(3S)-1-benzylpyrrolidin-3-yl]oxy}quinazolin-2-yl)amino]cyclohexanol], the inhibition at 1 µM amounted to 46%. Still for that read-out and setting: the figure for `Cc1nnc(CCNC(=O)c2cccc3cnc(N[C@H]4CC[C@H](O)CC4)nc23)[nH]1` [Example 478, 2-[(trans-4-hydroxycyclohexyl)amino]-N-[2-(5-methyl-4H-1,2,4-triazol-3-yl)ethyl]quinazoline-8-carboxamide] is 12%; for `O=C(NCCc1cn2cccnc2n1)c1cccc2cnc(N[C@H]3CC[C@H](O)CC3)nc12` [Example 499, 2-[(trans-4-hydroxycyclohexyl)amino]-N-(2-imidazo[1,2-a]pyrimidin-2-ylethyl)quinazoline-8-carboxamide] it is 8%.

The same test, now with this note: @10 uM; read-out: % Inhibition JNK-1.
As for `O=C(Nc1cccnc1N1CCOCC1)c1cccc2cnc(N[C@H]3CC[C@H](O)CC3)nc12` [Example 324, 2-[(trans-4-hydroxycyclohexyl)amino]-N-(2-morpholin-4-ylpyridin-3-yl)quinazoline-8-carboxamide], the inhibition at 10 µM stood at 26%. As for `CC(C)(CO)NC(=O)c1ccc2cnc(NC3CCCC3)nc2c1` [Example 438, 2-(cyclopentylamino)-N-(2-hydroxy-1,1-dimethylethyl)quinazoline-7-carboxamide], the inhibition at 10 µM is 63%. Turning to `O[C@H]1CC[C@H](Nc2ncc3cccc(OC[C@@H]4CCCN5CCCC[C@H]45)c3n2)CC1` [Example 263, trans-4-({8-[(1R, 9aR)-octahydro-2H-quinolizin-1-ylmethoxy]quinazolin-2-yl}amino)cyctohexanol], the inhibition at 10 µM was found to be 31%. `c1ccc(Cn2cccn2)c(CNc2cc3cc(-c4cn[nH]c4)ccc3cn2)c1` [Example 233, 6-(1H-pyrazol-4-yl)-N-[2-(1H-pyrazol-1-ylmethyl)benzyl]isoquinolin-3-amine]: the inhibition at 10 µM was determined as 46%.

`c1ncc(-c2ccc(CNc3cc4cc(-c5cn[nH]c5)ccc4cn3)cc2)cn1` [Example 235, 6-(1H-pyrazol-4-yl)-N-(4-pyrimidin-5-ylbenzyl)isoquinolin-3-amine]: the inhibition at 10 µM was 15%. As to `Cc1cc(C)nc(CNC(=O)c2cccc3cnc(N[C@H]4CC[C@H](O)CC4)nc23)n1` [Example 512, N-[(4,6-dimethylpyrimidin-2-yl)methyl]-2-[(trans-4-hydroxycyclohexyl)amino]quinazoline-8-carboxamide], the inhibition at 10 µM is 31%.

Still in this test, the particulars now being: JNK-1.
`O=C(NCC1(O)CCC1)c1ccc2cnc(N[C@H]3CC[C@H](O)CC3)nc2c1` [Example 341, N-[(1-hydroxycyclobutyl)methyl]-2-[(trans-4-hydroxycyclohexyl)amino]quinazoline-7-carboxamide] gave an inhibition constant (Ki) of 836 nM. `O=C(NC(CO)c1ccccc1)c1ccc2cnc(N[C@H]3CC[C@H](O)CC3)nc2c1` (stereo partly drawn) [Example 326, 2-{(trans-4-hydroxycyclohexyl)amino]-N-(2-hydroxy-1-phenylethyl)quinazoline-7-carboxamide]: the Ki amounted to 193 nM.

The molecule `CC(=O)N1CCC(C(=O)Nc2cc3cc(-c4cn[nH]c4)ccc3cn2)CC1` [Example 15, 1-acetyl-N-[6-(1H-pyrazol-4-yl)isoquinolin-3-yl]piperidine-4-carboxamide] gave an inhibitory constant (Ki) of 24 nM. For the molecule `CC(C)[C@@H](CO)NC(=O)c1ccc2cnc(NC3CCCC3)nc2c1` [Example 407, 2-(cyclopentylamino)-N-[(1S)-1-(hydroxymethyl)-2-methylpropyl]quinazoline-7-carboxamide], the affinity corresponds to a Ki of 735 nM. On the same count and under the same terms, the figure for `O=C(NC(CO)c1ccccn1)c1ccc2cnc(N[C@H]3CC[C@H](O)CC3)nc2c1` (stereo partly drawn) [Example 100, 2-[(trans-4-hydroxycyclohexyl)amino]-N-(2-hydroxy-1-pyridin-2-ylethyl)quinazoline-7-carboxamide] is 120 nM; for `Cc1cc(CNc2cc3cc(-c4cn[nH]c4)ccc3cn2)ccn1` [Example 227, N-[(2-methylpyridin-4-yl)methyl]-6-(1H-pyrazol-4-yl)isoquinolin-3-amine] it is 6620 nM. Still for that read-out and setting: the figure for `Cc1cc(OCCN(C)C)ccc1-c1cccc2cnc(N[C@H]3CC[C@H](O)CC3)nc12` [Example 203, trans-4-[(8-{4-[2-(dimethylamino)ethoxy]-2-methylphenyl}quinazolin-2-yl)amino] cyclohexanol] is 815 nM. Turning to `O=C(Cn1cnnn1)Nc1cc2cc(-c3cn[nH]c3)ccc2cn1` [Example 48, N-[6-(1H-pyrazol-4-yl)isoquinolin-3-yl]-2-(1H-tetrazol-1-yl)acetamide], the inhibition constant Ki worked out at 15 nM.

Regarding `CC(C)Nc1ncc2ccc(C(=O)N[C@H](CO)Cc3ccccc3)cc2n1` [Example 415, N-((1S)-1-benzyl-2-hydroxyethyl]2-(isopropylamino)quinazoline-7-carboxamide], the inhibition constant Ki was determined as 1490 nM.

The molecule `CC(=O)N1CCC(CNC(=O)c2ccc3cnc(N[C@H]4CC[C@H](O)CC4)nc3c2)CC1` [Example 91, N-[(1-acetylpiperidin-4-yl)methyl]-2-[(trans-4-hydroxycyclohexyl)amino]quinazoline-7-carboxamide] returned a Ki of 643 nM. Take `c1cc2cnc(NC3CCOCC3)nc2cc1O[C@H]1CCOC1` [Example 163, 7-[(3S)-tetrahydrofuran-3-yloxy]-N-(tetrahydro-2H-pyran-4-yl)quinazolin-2-amine]: the affinity corresponds to a Ki of 1740 nM.

With `CCC(CO)NC(=O)c1cccc2cnc(N[C@H]3CC[C@H](O)CC3)nc12` (stereo partly drawn) [Example 442, 2-[(trans-4-hydroxycyclohexyl)amino]-N-[1-(hydroxymethyl)propyl]quinazoline-8-carboxamide], the affinity corresponds to a Ki of 83 nM. The molecule `O=C(N[C@H]1CC[C@H](CO)CC1)c1ccc2cnc(N[C@H]3CC[C@H](O)CC3)nc2c1` [Example 345, 2-[(trans-4-hydroxycyclohexyl)amino]-N-[trans-4-(hydroxymethyl)cyclohexyl]quinazoline-7-carboxamide] had a Ki of 885 nM. Same read-out and setting: the figure for `O=C(Cc1ccc(C(F)(F)F)cc1)Nc1cc2cc(-c3cn[nH]c3)ccc2cn1` [Example 45, N-[6-(1H-pyrazol-4-yl)isoquinolin-3-yl]-2-[4-(trifluoromethyl)phenyl]acetamide] is 21 nM. On the same count and under the same terms, the figure for `CC(=O)N[C@H]1CC[C@H](Nc2ncc3cccc(C(=O)N[C@@H]4CCC[C@H]4O)c3n2)CC1` (relative stereo) [Example 138, 2-{[trans-4-(acetylamino)cyclohexyl]amino}-N-[(trans)-2-hydroxycyclopentyl]quinazoline-8-carboxamide] is 950 nM; for `CC1(CNC(=O)c2ccc3cnc(N[C@H]4CC[C@H](O)CC4)nc3c2)COC1` [Example 335, 2-[(trans-4-hydroxycyclohexyl)amino]-N-[(3-methyloxetan-3-yl)methyl]quinazoline-7-carboxamide] it is 483 nM. The molecule `CNC(=O)c1cccc2cnc(N[C@H]3CC[C@H](O)CC3)nc12` [Example 114, 2-[(trans-4-hydroxycyclohexyl)amino]-N-methylquinazoline-8-carboxamide] returned a Ki of 1550 nM. Consider `Cc1ccc2cnc(N[C@H]3CC[C@H](O)CC3)nc2c1OCC(=O)N(C)CCO` [Example 212, 2-({2-[(trans-4-hydroxycyclohexyl)amino]-7-methylquinazolin-8-yl}oxy)-N-(2-hydroxyethyl)-N-methylacetamide], for which the inhibitory constant (Ki) is 1950 nM. In the case of `O=C(NC1CC1)c1cccc2cnc(N[C@H]3CC[C@H](O)CC3)nc12` [Example 447, N-cyclopropyl-2-[(trans-4-hydroxycyclohexyl)amino]quinazoline-8-carboxamide], affinity was put at a Ki of 119 nM. `O=C(NC1CCCCC1O)c1ccc2cnc(N[C@H]3CC[C@H](O)CC3)nc2c1` (stereo partly drawn) [Example 342, N-(2-hydroxycyclohexyl)-2-[(trans-4-hydroxycyclohexyl)amino]quinazoline-7-carboxamide] gave a Ki of 839 nM. Molecule `CC(=O)N[C@H]1CC[C@H](Nc2ncc3cccc(OC4CCOC4)c3n2)CC1` (stereo partly drawn) [Example 184, N-(trans-4-{[8-(tetrahydrofuran-3-yloxy)quinazolin-2-yl]amino}cyclohexyl)acetamide] displayed an inhibition constant Ki of 674 nM. Molecule `O=C(NC1CCS(=O)(=O)C1)c1cccc2cnc(N[C@H]3CC[C@H](O)CC3)nc12` (stereo partly drawn) [Example 119, N-(1,1-dioxidotetrahydro-3-thienyl)-2-[(trans-4-hydroxycyclohexyl)amino]quinazoline-8-carboxamide] displayed a Ki of 377 nM.
